System: Burgundy amaranth (Amaranthus hypochondriacus)
Assay: Herbicidal bioassay against Burgundy amaranth (foliar spray, evaluated 6 days after application)
Type: in vivo
Conditions: 144 h, read-out: (%) Mortality/Control at Concentration (μg/mL)
Source text: As noted above, the herbicidal compositions can be chemically synthesized or derived from a biological organism. Here, the culture broth derived from the 100 L fermentation Burkholderia (A396) was extracted to give crude extract. The crude extract was then fractionated using reversed-phase C18 vacuum liquid chromatography (H2O/CH3OH) to give 5 fractions. These fractions were then screened for herbicidal activity using plant assay with Amaranthus hypochondriacus (Burgundy amaranth). The active fractions (F3 & F4) were then subjected to reversed phase HPLC to give pure compounds, which were then tested in the above mentioned bioassay to locate/identify the active compounds. […] To confirm the identity of the compounds, additional spectroscopic data such as LC-MS and NMR were recorded. Based on the detailed analysis of the data, the two compounds were identified as FR 901464 (MW 507) and spliceostatin C (MW 519). Note that different fermentation method would produce different (or no) amount of the below compound(s), some none at all.
Burgundy amaranth (Amaranthus hypochondriacus) plants were grown in a greenhouse to the 3-4 leaf stage in 2.5 cm square pots containing plant growth mix with slow release fertilizer. Treatments were then applied using a research cabinet track sprayer fitted with an 8001 nozzle and at a carrier volume of 20 gal/A. Negative controls were sprayed with water. Pots were blocked and randomized by treatment after spray and placed in a growth room at 25° C. and 50% RH, and watered as necessary. Plants were evaluated 6 days after application for visual damage and fresh weight. Data in Table 1 was subjected to ANOVA and means were separated using the Tukey method with 95% confidence intervals.

Structure (SMILES)	mortality at 0.65 µg/mL	mortality at 1.3 µg/mL
CC(=O)OC(C)/C=C\C(=O)NC1CC(C)C(C/C=C(C)/C=C/C2CC3(CO3)CC(CC(=O)O)O2)OC1C (stereo not shown) [Spliceostatin C]	44%	80%
CC(=O)OC(C)/C=C\C(=O)NC1CC(C)C(C/C=C(C)/C=C/C2OC(C)(O)CC3(CO3)C2O)OC1C (stereo not shown) [FR901464]	44%	84%

Source: US12484582B2, “Herbicidal compound” (PRO FARM GROUP, INC., priority 2017, dated 2025)
